Like-named read-outs stand apart in the source and are kept apart here.

Assay [1] deals with T1, αγ heterodimer of human NAD-IDH (Homo sapiens, UniProt P50213+P51553).
T1 construct: gene IDH3A; E. coli BL21(DE3) Codon-Plus co-expression from pQlinkN-α-γ-tev-His6; C-terminal His6 of gamma cut with TEV protease; alpha 37 kDa, gamma 39 kDa; heterodimer
T1 sequence (P50213 28-366): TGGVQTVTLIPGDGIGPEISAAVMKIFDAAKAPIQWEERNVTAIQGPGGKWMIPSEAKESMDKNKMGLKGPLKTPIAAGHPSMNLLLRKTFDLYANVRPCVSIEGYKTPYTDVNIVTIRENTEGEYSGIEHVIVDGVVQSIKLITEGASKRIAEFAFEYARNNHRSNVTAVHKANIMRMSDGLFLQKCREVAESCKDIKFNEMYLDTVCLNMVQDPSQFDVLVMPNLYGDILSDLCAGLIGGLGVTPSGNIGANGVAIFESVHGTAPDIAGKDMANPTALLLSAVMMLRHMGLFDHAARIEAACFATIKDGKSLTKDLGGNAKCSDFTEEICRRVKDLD
T1 sequence (P51553 40-393): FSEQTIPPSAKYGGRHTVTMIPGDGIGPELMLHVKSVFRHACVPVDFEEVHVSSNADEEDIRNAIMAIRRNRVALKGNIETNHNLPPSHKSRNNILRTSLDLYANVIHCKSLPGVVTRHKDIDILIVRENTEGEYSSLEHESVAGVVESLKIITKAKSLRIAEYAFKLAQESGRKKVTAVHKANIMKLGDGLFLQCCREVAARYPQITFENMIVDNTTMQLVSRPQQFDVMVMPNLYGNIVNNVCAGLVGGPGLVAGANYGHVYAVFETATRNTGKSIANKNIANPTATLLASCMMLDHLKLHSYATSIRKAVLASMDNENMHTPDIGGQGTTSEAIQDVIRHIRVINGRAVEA
Description: NADH formation at […] nm. The class given is biochemical.

Assay [2] concerns the target T2, αβ heterodimer of human NAD-IDH (Homo sapiens, UniProt P50213).
T2 construct: gene IDH3A; alpha 37 kDa, beta 39 kDa; heterodimer
Description: ITC. The conditions noted are these: 50 mM HEPES pH 7.4, 200 mM NaCl, 20 °C, read-out: K d (μ M) ^a. The assay is classed as binding. From the text:
ITC on αβ heterodimer of human NAD-IDH

Assay [3] concerns the target T3, α2βγ heterotetramer of human NAD-IDH (Homo sapiens, UniProt P50213+P51553).
T3 construct: gene IDH3A; alpha 37 kDa, beta 39 kDa, gamma 39 kDa
Description: NADH formation at […] nm. The assay is classed as biochemical. The conditions noted are these: 33 mM Tris-acetate pH 7.4, 2 mM MnCl2, 20 mM DL-isocitrate, 1 mM NAD+, 25 °C.

Assay [4] deals with T2, αβ heterodimer of human NAD-IDH. Description: NADH formation at […] nm. The assay is classed as biochemical. To be noted: 33 mM Tris-acetate pH 7.4, 20 mM DL-isocitrate, 1 mM NAD+, 25 °C.
In assay [5] the target is T3, α2βγ heterotetramer of human NAD-IDH. The assay is described as follows: ITC. The assay is classed as binding. To be noted: 50 mM HEPES pH 7.4, 200 mM NaCl, 20 °C; single set of sites fit, n 2.53; read-out: K d (μ M) ^a. From the text:
ITC on α2βγ heterotetramer of human NAD-IDH

The target in assay [6] is T1, αγ heterodimer of human NAD-IDH. The assay is described as follows: ITC. The assay is classed as binding. The conditions noted are these: read-out: K d (μ M) ^a. From the text: ITC on αγ heterodimer of human NAD-IDH

T2 sequence (O43837 35-385 partner, one chain of several): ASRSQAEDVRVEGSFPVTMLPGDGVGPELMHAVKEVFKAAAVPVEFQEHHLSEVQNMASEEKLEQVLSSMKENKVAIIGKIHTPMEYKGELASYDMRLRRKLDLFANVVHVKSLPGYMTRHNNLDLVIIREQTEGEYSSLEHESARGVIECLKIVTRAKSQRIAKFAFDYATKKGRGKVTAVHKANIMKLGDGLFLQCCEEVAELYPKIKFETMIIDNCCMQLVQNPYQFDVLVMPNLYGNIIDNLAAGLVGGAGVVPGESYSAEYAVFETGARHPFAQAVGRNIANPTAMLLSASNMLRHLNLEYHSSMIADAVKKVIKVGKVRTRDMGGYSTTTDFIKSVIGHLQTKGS
T3 sequence (O43837 35-385 partner, one chain of several): as above

For the compound `NC(=O)C1=CN([C@@H]2O[C@H](COP(=O)(O)OP(=O)(O)OC[C@H]3O[C@@H](n4cnc5c(N)ncnc54)[C@H](O)[C@@H]3O)[C@@H](O)[C@H]2O)C=CC1` [NADH], the figures for the IC50 in assay [1], in assay [3] and in assay [4] were 82.7 ± 6 µM, 78.5 ± 5.4 µM and 94.9 ± 7.8 µM, respectively. For the same compound, the Kd came out at 4.6 ± 0.7 µM in assay [2] (single set of sites fit, n 1.26); 46.3 ± 6.5 µM in assay [5]; 109 ± 19.5 µM in assay [6].
Take `NC(=O)c1ccc[n+]([C@@H]2O[C@H](COP(=O)(O)OP(=O)(O)OC[C@H]3O[C@@H](n4cnc5c(N)ncnc54)[C@H](O)[C@@H]3O)[C@@H](O)[C@H]2O)c1` [NAD^+]: the Kd in assay [2] (no isocitrate, n 1.14) is 268 ± 28.4 µM.

(Values after publication PMC5816668, “Insights into the inhibitory mechanisms of NADH on the αγ heterodimer of human NAD-dependent isocitrate dehydrogenase” (Scientific Reports, 2018).)
